# Experimental data as given in ChEMBL document CHEMBL1129946, “New esters of 4-amino-5-chloro-2-methoxybenzoic acid as potent agonists and antagonists for 5-HT4 receptors” (J Med Chem, 1997).
# Molecular target: T1, Serotonin 3 (5-HT3) receptor (Rattus norvegicus, UniProt P35563+Q9JJ16)
# T1 sequence (P35563 whole entry): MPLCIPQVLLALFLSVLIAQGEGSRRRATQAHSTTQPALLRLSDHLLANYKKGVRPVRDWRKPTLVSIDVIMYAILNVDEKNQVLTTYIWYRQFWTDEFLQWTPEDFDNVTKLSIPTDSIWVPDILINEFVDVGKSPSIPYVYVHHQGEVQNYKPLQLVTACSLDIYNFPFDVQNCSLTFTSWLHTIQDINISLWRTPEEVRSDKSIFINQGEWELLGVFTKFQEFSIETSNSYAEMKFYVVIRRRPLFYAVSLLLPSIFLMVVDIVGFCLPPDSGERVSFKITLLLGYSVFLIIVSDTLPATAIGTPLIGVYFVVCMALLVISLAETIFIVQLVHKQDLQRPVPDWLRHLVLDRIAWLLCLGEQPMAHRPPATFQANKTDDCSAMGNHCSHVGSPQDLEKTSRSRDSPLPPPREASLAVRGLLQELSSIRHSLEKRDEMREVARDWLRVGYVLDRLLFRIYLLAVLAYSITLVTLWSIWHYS
# T1 sequence (Q9JJ16 whole entry): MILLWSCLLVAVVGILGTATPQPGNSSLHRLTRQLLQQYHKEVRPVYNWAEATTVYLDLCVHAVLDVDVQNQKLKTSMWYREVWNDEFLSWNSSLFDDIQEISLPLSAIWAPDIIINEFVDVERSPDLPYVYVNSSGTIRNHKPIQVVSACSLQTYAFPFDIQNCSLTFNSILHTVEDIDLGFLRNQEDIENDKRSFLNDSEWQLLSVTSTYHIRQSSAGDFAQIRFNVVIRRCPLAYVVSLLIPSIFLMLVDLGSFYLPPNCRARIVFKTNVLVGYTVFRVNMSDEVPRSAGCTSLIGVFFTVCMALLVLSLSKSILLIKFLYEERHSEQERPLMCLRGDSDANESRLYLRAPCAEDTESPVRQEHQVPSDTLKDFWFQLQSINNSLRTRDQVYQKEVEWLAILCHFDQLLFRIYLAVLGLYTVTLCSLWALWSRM
# Test: Binding affinity was measured on 5-hydroxytryptamine 3 receptor using [3H]-BRL 43694 as radioligand in rat posterior cortex.
row,Compound,Ki [µM]
1,COc1cc(N)c(Cl)cc1C(=O)OCCN1CCCCC1,0.73
2,COc1cc(N)c(Cl)cc1C(=O)OCCN1CC(C)CC(C)C1 (stereo in doubt; 7g),> 1
3,COc1cc(N)c(Cl)cc1C(=O)OCCN1CC(C)CC(C)C1 (stereo in doubt; 7h),> 1
4,COc1cc(N)c(Cl)cc1C(=O)OCCN1CCCC(C)C1 (centres undefined),> 1

# Molecular target: T2, 5-hydroxytryptamine receptor 4 (Cavia porcellus, UniProt O70528)
# T2 sequence (O70528 whole entry): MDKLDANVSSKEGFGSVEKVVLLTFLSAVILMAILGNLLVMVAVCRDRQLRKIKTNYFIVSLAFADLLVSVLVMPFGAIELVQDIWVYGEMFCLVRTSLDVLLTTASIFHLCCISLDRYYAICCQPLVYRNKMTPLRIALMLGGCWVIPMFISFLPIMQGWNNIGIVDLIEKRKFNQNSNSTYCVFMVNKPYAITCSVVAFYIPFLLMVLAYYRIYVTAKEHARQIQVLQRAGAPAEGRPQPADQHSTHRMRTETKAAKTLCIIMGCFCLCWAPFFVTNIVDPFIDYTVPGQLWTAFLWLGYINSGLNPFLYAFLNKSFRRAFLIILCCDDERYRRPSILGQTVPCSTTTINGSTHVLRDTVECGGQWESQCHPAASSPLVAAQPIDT
row,Compound,IC50
1,CC(C)n1c(=O)n(C(=O)NC2CC3CCC(C2)N3C)c2ccccc21 (centres undefined),Not Active
2,COc1cc(N)c(Cl)cc1C(=O)OCCN1CC(C)OC(C)C1 (centres undefined),Not Active
3,NCCc1c[nH]c2ccc(O)cc12 [SEROTONIN],Not Active

# Molecular target: T2, 5-hydroxytryptamine receptor 4
# Test: 5-hydroxytryptamine 4 receptor agonist activity, concentration which gave 50% increase in the response to electrically-stimulated myenteric plexus and longitudinal muscle of the guinea pig ileum; call rule not given here
# Assay type: functional, tissue-based
row,Compound,EC50 [µM]
1,COc1cc(N)c(Cl)cc1C(=O)OCCN(C)C,0.18
2,COc1cc(N)c(Cl)cc1C(=O)N[C@@H]1CN2CCC1CC2,0.077
3,CC(C)n1c(=O)n(C(=O)NC2CC3CCC(C2)N3C)c2ccccc21 (centres undefined),0.043
4,COc1cc(N)c(Cl)cc1C(=O)OCCN1CCC(O)CC1,0.014
5,COc1cc(N)c(Cl)cc1C(=O)OCCN1CCCC(O)C1 (stereo in doubt; 7l) [listing 1 of 2 here],0.01
6,COc1cc(N)c(Cl)cc1C(=O)NCCN1CC(C)CC(C)C1 (centres undefined),~0.93
7,COc1cc(N)c(Cl)cc1C(=O)OCC[N+]12CCC(CC1)CC2,0.0053
8,COc1cc(N)c(Cl)cc1C(=O)OCCN1CCCC(O)C1 (stereo in doubt; 7k) [listing 1 of 2 here],0.004
9,COc1cc(N)c(Cl)cc1C(=O)OCCCN1CCCCC1,0.03
10,COc1cc(N)c(Cl)cc1C(=O)N[C@H]1CN2CCC1CC2 [(R)ZACOPRIDE],0.166
11,COc1cc(N)c(Cl)cc1C(=O)OCCN1CCCC1,0.04
12,COc1cc(N)c(Cl)cc1C(=O)OCCN1CC=CCC1,0.029
13,COc1cc(N)c(Cl)cc1C(=O)OCCN1CCCC(O)C1 (stereo in doubt; 7j) [listing 1 of 2 here],0.005
14,COc1cc(N)c(Cl)cc1C(=O)OCCN1CC2CCC(CC2)C1,0.0078
15,COc1cc(N)c(Cl)cc1C(=O)OCCN1CCC(C(N)=O)CC1,0.019
16,COc1cc(N)c(Cl)cc1C(=O)OCCN1CCC(NC(C)=O)CC1,0.013
17,COc1cc(N)c(Cl)cc1C(=O)OCCN1CCOCC1,0.113
18,COc1cc(N)c(Cl)cc1C(=O)OCCN1CCCC(C)C1 (centres undefined),0.015
19,COc1cc(N)c(Cl)cc1C(=O)OCC[n+]1ccccc1,0.017
20,COc1cc(N)c(Cl)cc1C(=O)NCCN1CCCCC1,> 1
21,COc1cc(N)c(Cl)cc1C(=O)N(C)CCN1CCCCC1,> 1
22,COc1cc(N)c(Cl)cc1C(=O)OCCN1CCC(C)CC1,0.003
23,COc1cc(N)c(Cl)cc1C(=O)OCCN1CCCCCC1,0.0044
24,COc1cc(N)c(Cl)cc1C(=O)OCCN1CCCCC1C (centres undefined),0.006
25,COc1cc(N)c(Cl)cc1C(=O)OCCN1C2CCCC1CC2,0.04

# Molecular target: T2, 5-hydroxytryptamine receptor 4
# Test: 5-hydroxytryptamine 4 receptor antagonist activity, concentration which gave 50% reduction of the 5-HT-induced contractions in the guinea pig ileum; Inactive up to 10E-5 M
# Assay type: functional, tissue-based
row,Compound,IC50
1,COc1cc(N)c(Cl)cc1C(=O)OCCN1CCOCC1,Not Active

# Molecular target: 5-hydroxytryptamine receptor 4 (Rattus norvegicus, UniProt Q62758)
# Sequence (Q62758 whole entry): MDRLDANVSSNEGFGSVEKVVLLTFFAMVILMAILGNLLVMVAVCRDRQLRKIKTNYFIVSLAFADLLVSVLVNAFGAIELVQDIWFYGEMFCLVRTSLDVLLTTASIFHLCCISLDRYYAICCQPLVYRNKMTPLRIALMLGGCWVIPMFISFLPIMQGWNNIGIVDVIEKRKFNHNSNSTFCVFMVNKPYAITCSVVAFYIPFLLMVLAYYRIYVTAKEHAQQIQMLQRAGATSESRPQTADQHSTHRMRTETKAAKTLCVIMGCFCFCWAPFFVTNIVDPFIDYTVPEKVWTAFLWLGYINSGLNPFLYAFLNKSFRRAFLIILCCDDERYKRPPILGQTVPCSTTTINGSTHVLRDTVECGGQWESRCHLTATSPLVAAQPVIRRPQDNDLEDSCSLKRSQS
# Test: Binding affinity towards 5-hydroxytryptamine 4 receptor was determined in rat striatal membranes using [3H]GR-113808 as radioligand
# Assay type: cell membranes, Striatum, Membrane
row,Compound,Ki [µM]
1,COc1cc(N)c(Cl)cc1C(=O)OCCN(C)C,0.047
2,COc1cc(N)c(Cl)cc1C(=O)NC1CC2CCC(C1)N2C (centres undefined),0.0486
3,CC(C)n1c(=O)n(C(=O)NC2CC3CCC(C2)N3C)c2ccccc21 (centres undefined),0.257
4,COc1cc(N)c(Cl)cc1C(=O)OCCN1CCC(O)CC1,0.00142
5,COc1cc(N)c(Cl)cc1C(=O)OCCN1CC(C)CC(C)C1 (stereo in doubt; 7g),0.00026
6,COc1cc(N)c(Cl)cc1C(=O)OCCN1CC(C)CC(C)C1 (stereo in doubt; 7h),0.00232
7,COc1cc(N)c(Cl)cc1C(=O)OCCN1CC(C)OC(C)C1 (centres undefined),0.00628
8,COc1cc(N)c(Cl)cc1C(=O)OCCN1CCCC(O)C1 (stereo in doubt; 7l) [listing 1 of 2 here],0.002
9,COc1cc(N)c(Cl)cc1C(=O)NCCN1CC(C)CC(C)C1 (centres undefined),0.103
10,COc1cc(N)c(Cl)cc1C(=O)OCC[N+]12CCC(CC1)CC2,0.00603
11,COc1cc(N)c(Cl)cc1C(=O)OCCN1CCCC(O)C1 (stereo in doubt; 7k) [listing 1 of 2 here],0.001
12,COc1cc(N)c(Cl)cc1C(=O)OCCCN1CCCCC1,0.0281
13,COc1cc(N)c(Cl)cc1C(=O)N[C@H]1CN2CCC1CC2 [(R)ZACOPRIDE],1.51
14,CCN(CC)CCOC(=O)c1cc(Cl)c(N)cc1OC,0.0055
15,COc1cc(N)c(Cl)cc1C(=O)OCCN1CCCC1,0.00535
16,COc1cc(N)c(Cl)cc1C(=O)NCCN(C)C,> 1
17,COc1cc(N)c(Cl)cc1C(=O)OCCN1CC=CCC1,0.0091

row,Compound,Ki [µM]
1,COc1cc(N)c(Cl)cc1C(=O)OCCN1C(C)CCCC1C (centres undefined),0.0395
2,COc1cc(N)c(Cl)cc1C(=O)OCCN1CCCC(O)C1 (stereo in doubt; 7j) [listing 1 of 2 here],0.0048
3,COc1cc(N)c(Cl)cc1C(=O)OCCN1CCCC(C)(C)C1,0.00172
4,COc1cc(N)c(Cl)cc1C(=O)OCCN1CC2CCC(CC2)C1,0.00545
5,COc1cc(N)c(Cl)cc1C(=O)OCCN1CCC(C(N)=O)CC1,0.00143
6,Cn1cc(C(=O)OCC2CCN(CCNS(C)(=O)=O)CC2)c2ccccc21,0.00015
7,COc1cc(N)c(Cl)cc1C(=O)OCCN1CCC(NC(C)=O)CC1,0.00105
8,COc1cc(N)c(Cl)cc1C(=O)OCCN1CCOCC1,0.0356
9,COc1cc(N)c(Cl)cc1C(=O)OCCN1CCCC(C)C1 (centres undefined),0.00093
10,COc1cc(N)c(Cl)cc1C(=O)OCC[n+]1ccccc1,0.0062
11,COc1cc(N)c(Cl)cc1C(=O)NCCN1CCCCC1,0.135
12,COc1cc(N)c(Cl)cc1C(=O)N(C)CCN1CCCCC1,> 1
13,COc1cc(N)c(Cl)cc1C(=O)OCCN1CCC(C)CC1,0.00408
14,COc1cc(N)c(Cl)cc1C(=O)OCCN1CCCCCC1,0.00092
15,COc1cc(N)c(Cl)cc1C(=O)OCCN1CCCCC1C (centres undefined),0.0078
16,COc1cc(N)c(Cl)cc1C(=O)OCCN1C2CCCC1CC2,0.0093

# Molecular target: T1, Serotonin 3 (5-HT3) receptor
# Test: Binding affinity was measured on 5-hydroxytryptamine 3 receptor using [3H]-BRL 43694 as radioligand in rat posterior cortex
row,Compound,Ki [µM]
1,COc1cc(N)c(Cl)cc1C(=O)OCCN1CCCC(O)C1 (stereo in doubt; 7j) [listing 1 of 2 here],> 1

# Molecular target: 5-hydroxytryptamine receptor 4 (Cavia porcellus) (UniProt O70528)
# Sequence (O70528 whole entry): as the sequence (O70528 whole entry) above
# Test: 5-hydroxytryptamine 4 receptor agonist activity is expressed as percent of the maximum 5-HT response
# Assay type: functional
row,Compound,Activity [%]
1,COc1cc(N)c(Cl)cc1C(=O)OCCN(C)C,60
2,COc1cc(N)c(Cl)cc1C(=O)N[C@@H]1CN2CCC1CC2,100
3,COc1cc(N)c(Cl)cc1C(=O)OCCN1CCC(O)CC1,72
4,COc1cc(N)c(Cl)cc1C(=O)NCCN1CC(C)CC(C)C1 (centres undefined),80
5,COc1cc(N)c(Cl)cc1C(=O)OCC[N+]12CCC(CC1)CC2,78
6,COc1cc(N)c(Cl)cc1C(=O)OCCCN1CCCCC1,52
7,COc1cc(N)c(Cl)cc1C(=O)N[C@H]1CN2CCC1CC2 [(R)ZACOPRIDE],84
8,COc1cc(N)c(Cl)cc1C(=O)OCCN1CCCC1,50
9,COc1cc(N)c(Cl)cc1C(=O)OCCN1CCCC(O)C1 (stereo in doubt; 7j) [listing 2 of 2 here],64
10,COc1cc(N)c(Cl)cc1C(=O)OCCN1CC=CCC1,65
11,COc1cc(N)c(Cl)cc1C(=O)OCCN1CCCC(O)C1 (stereo in doubt; 7l) [listing 2 of 2 here],61
12,COc1cc(N)c(Cl)cc1C(=O)OCCN1CC2CCC(CC2)C1,61
13,COc1cc(N)c(Cl)cc1C(=O)OCCN1CCC(C(N)=O)CC1,65
14,COc1cc(N)c(Cl)cc1C(=O)OCCN1CCCC(O)C1 (stereo in doubt; 7k) [listing 2 of 2 here],62
15,COc1cc(N)c(Cl)cc1C(=O)OC1CC2CCC(C1)N2C (centres undefined),41
16,COc1cc(N)c(Cl)cc1C(=O)OCCN1CCC(NC(C)=O)CC1,59
17,COc1cc(N)c(Cl)cc1C(=O)OCCN1CCCC(C)C1 (centres undefined),54
18,COc1cc(N)c(Cl)cc1C(=O)OCCN1CCC(C)CC1,57
19,COc1cc(N)c(Cl)cc1C(=O)OCCN1CCCCCC1,59
20,COc1cc(N)c(Cl)cc1C(=O)OCCN1CCCCC1C (centres undefined),82
21,COc1cc(N)c(Cl)cc1C(=O)OCCN1C2CCCC1CC2,63

# Molecular target: T2, 5-hydroxytryptamine receptor 4
# Test: 5-hydroxytryptamine 4 receptor antagonist activity, concentration which gave 50% reduction of the 5-HT-induced contractions in the guinea pig ileum
# Assay type: functional, tissue-based
row,Compound,IC50 [µM]
1,COc1cc(N)c(Cl)cc1C(=O)OCCN(C)C,0.6
2,COc1cc(N)c(Cl)cc1C(=O)OCCN1CC(C)CC(C)C1 (stereo in doubt; 7g),0.011
3,COc1cc(N)c(Cl)cc1C(=O)OCCN1CC(C)CC(C)C1 (stereo in doubt; 7h),0.013
4,COc1cc(N)c(Cl)cc1C(=O)OCCN1CC(C)OC(C)C1 (centres undefined),0.3
5,COc1cc(N)c(Cl)cc1C(=O)OCCN1CCN(c2ccccc2)CC1,0.1
6,COc1cc(N)c(Cl)cc1C(=O)OCC[N+]12CCC(CC1)CC2,~0.02
7,COc1cc(N)c(Cl)cc1C(=O)OCCN1CCCC1,0.2
8,COc1cc(N)c(Cl)cc1C(=O)OCCN1CCCC(C)(C)C1,0.15
9,Cn1cc(C(=O)OCC2CCN(CCNS(C)(=O)=O)CC2)c2ccccc21,0.013
10,COc1cc(N)c(Cl)cc1C(=O)NCCN1CCCCC1,> 1
11,COc1cc(N)c(Cl)cc1C(=O)N(C)CCN1CCCCC1,> 1
